Measured values: paper PMC7352952, “Peptides Derived from (RRWQWRMKKLG)2-K-Ahx Induce Selective Cellular Death in Breast Cancer Cell Lines through Apoptotic Pathway” (International Journal of Molecular Sciences, 2020)
Values after ≈ are worked out from the molar mass of the structure shown. Bridge positions count the residues as written; N and C are the ends. Square brackets hold non-standard residues; d marks the D form. Peptide text beside a SMILES is read from it. I, II: the chains in the order shown. Ahx = NCCCCCC(=O)O

Legend:
HTB-132 cell line = assay: MTT viability test, HTB-132 cells; format: cell-based, human; conditions: for cytotoxic effect against HTB-132 compared with ^26[M] (in words) / IC50, cytotoxic effect, HTB-132: MTT; for cytotoxic effect against HTB-132 compared with ^26[M] (in words) / IC50: 24 h; for IC50, cytotoxic effect, HTB-132: 24 h at 37 °C, mean of n = 3; for IC50: human, pH 7.4
Protocol: (§1) For all cell lines, the medium used was Dulbecco’s Modified Eagle’s Medium (DMEM)/Nutrient Mixture F-12 Ham. For the HTB-132, MCF-7, and MCF-12A lines, the medium was supplemented with 10% fetal bovine serum (SFB), and 1.5 g/L NaHCO3 and NaOH were added up to pH 7.4, amphotericin (200 μg/mL), and 1% penicillin and streptomycin. For the primary culture cells of bovine mammary epithelium and fibroblasts, in addition to the above, hydrocortisone (250 μg/mL) was added. All media were filtered through a 0.22 μm membrane.
(§2) Briefly, the cells were seeded with a complete medium in 96-well plates at a rate of 10,000 cells and 100 µL per well, and adhesion to the plates was allowed for 24 h. Subsequently, the complete medium was removed and an incomplete medium was added for synchronization for another 24 h. The cells were then incubated at 37 °C for 2, 24, or 48 h with 100 μL of peptide at the concentrations to be evaluated (200, 100, 50, 25, 12.5, 6.25 and 3.1 μg/mL). Next, the peptide was removed from the box, and 100 µL of incomplete medium with 10% 3-4,5-dimethylthiazol-2-yl-2,5-diphenyltetrazole (MTT) bromide was added and incubated for 4 h. The medium was replaced with 100 μL of isopropanol (IPA), and after 30 min of incubation at 37 °C, the absorbance was measured at 575 nm. As a negative control, an incomplete culture medium with 10% MTT was used, and as a positive control, cells without MTT treatment were used.

[1] = tested on: MDA-MB 468 breast cancer cells; conditions: cited from earlier work
Description: (§3) Breast cancer is the most common cancer type diagnosed worldwide. There are 2.1 million cases annually, and 627,000 deaths of women due to this disease were reported in 2018 [5]. […] However, when this motif was modified or included in longer sequences, the cytotoxic effect against human cancer cell lines increased. In ...

[2] = tested on: MDA-MB 231 breast cancer cells; conditions: cited from earlier work
Description: as §3

MCF-7 cell line = assay: MTT viability test, MCF-7 cells; format: cell-based, human; conditions: for cytotoxic effect against MCF-7 compared with ^26[M] (in words) / IC50: 24 h; for IC50, cytotoxic effect, MCF-7: 24 h at 37 °C, three independent experiments with n = 4 each; for IC50: human, pH 7.4
Protocol: as §1, §2

MCF-12 cell line = format: cell-based, human
Protocol: as §1, §2

MCF-7 cells = assay: Cell morphology and size by inverted microscope; format: cell-based, human; conditions: MCF-7, 90 min of treatment, 37 °C; from 100.27 μm before; average of 100 measurements; Figure 3: 100 µg/mL
Protocol: Cell morphology was monitored before and after treatment with ^26[L] or ^26[F] at different times, using an inverted microscope coupled to an AxioCam ICc1 camera (Figure 3). The untreated cells had normal morphologic characteristics as polygonal, flattened, and elongated cells with long and defined axons (data not shown). After 5 min of treatment with the peptide, most cells retained their morphology; however, some began to appear rounded and shrunken. After 90 min, the cells treated with the peptide (^26[L] or ^26[F]) took on a rounded shape, and shrinkage was observed, going from an average size of 100.27 μm to 39.38 µm. […] At 24 h of treatment, the appearance of small vacuoles was observed, presumably associated with late apoptosis events. Finally, it was observed that the effect of the peptide was sustained up to 48 h since at that time no recovery of cell morphology was observed.
Figure 3 Micrography of MCF-7 cells treated with peptide ^26[F] at 100 µg/mL. The cells were incubated in the absence (A) or the presence of the peptide at (B) 5 min, (C) 90 min, (D) 240 min, (E) 24 h, and (F) 48 h at 37 °C. The cell size was determined as an average of 100 measurements, using an AxioCam ICc1 camera.

Compound | cytotoxic effect against HTB-132 compared with ^26[M] (in words) (HTB-132 cell line) | IC50, cytotoxic effect, HTB-132 (HTB-132 cell line) [µg/mL] | IC50 (HTB-132 cell line) [µM] | cytotoxic effect against MDA-MB-468 (in words) [1] | cytotoxic effect against MDA-MB-231 (in words) [2] | cytotoxic effect against MCF-7 compared with ^26[M] (in words) (MCF-7 cell line; MTT) | IC50, cytotoxic effect, MCF-7 (MCF-7 cell line; MTT) [µg/mL] | IC50 (MCF-7 cell line) [µM] | maximum cytotoxic effect, MCF-7 (MCF-7 cell line; MTT, peptide 200 µg/mL, regardless of treatment time (2, 24, 48 h)) [%] | cytotoxic effect against MCF-12 compared with HTB-132 and MCF-7 (in words) (MCF-12 cell line) | IC50, non-tumorigenic cell line MCF-12 (MCF-12 cell line; 24 h) [µg/mL] | average cell size after treatment (MCF-7 cells) [µm]
CC(C)C[C@H](NC(=O)[C@H](CCCCN)NC(=O)[C@H](CCCCN)NC(=O)[C@H](CCCCN)NC(=O)[C@H](CCCNC(=N)N)NC(=O)[C@H](Cc1c[nH]c2ccccc12)NC(=O)[C@H](CCC(N)=O)NC(=O)[C@H](Cc1c[nH]c2ccccc12)NC(=O)[C@H](CCCNC(=N)N)NC(=O)[C@@H](N)CCCNC(=N)N)C(=O)NCC(=O)NCCCC[C@H](NC(=O)CNC(=O)[C@H](CC(C)C)NC(=O)[C@H](CCCCN)NC(=O)[C@H](CCCCN)NC(=O)[C@H](CCCCN)NC(=O)[C@H](CCCNC(=N)N)NC(=O)[C@H](Cc1c[nH]c2ccccc12)NC(=O)[C@H](CCC(N)=O)NC(=O)[C@H](Cc1c[nH]c2ccccc12)NC(=O)[C@H](CCCNC(=N)N)NC(=O)[C@@H](N)CCCNC(=N)N)C(=O)NCCCCCC(N)=O [^26[K], (RRWQWRKKKLG)2-K-Ahx] (I: H-RRWQWRKKKLGK[Ahx]-NH2 / II: H-RRWQWRKKKLG; amide I:12-II:C) | lower cytotoxic effect against HTB-132 cells than the original dimeric peptide | > 200 | > 60 | – | – | – | – | – | – | – | – | –
RRWQWR [minimal motif peptide of LfcinB, reference compound] | – | – | – | low cytotoxic effect | low cytotoxic effect | – | – | – | – | – | – | –
CC(C)C[C@H](NC(=O)[C@H](CCCCN)NC(=O)[C@H](CCCCN)NC(=O)[C@H](C)NC(=O)[C@H](CCCNC(=N)N)NC(=O)[C@H](Cc1c[nH]c2ccccc12)NC(=O)[C@H](CCC(N)=O)NC(=O)[C@H](Cc1c[nH]c2ccccc12)NC(=O)[C@H](CCCNC(=N)N)NC(=O)[C@@H](N)CCCNC(=N)N)C(=O)NCC(=O)NCCCC[C@H](NC(=O)CNC(=O)[C@H](CC(C)C)NC(=O)[C@H](CCCCN)NC(=O)[C@H](CCCCN)NC(=O)[C@H](C)NC(=O)[C@H](CCCNC(=N)N)NC(=O)[C@H](Cc1c[nH]c2ccccc12)NC(=O)[C@H](CCC(N)=O)NC(=O)[C@H](Cc1c[nH]c2ccccc12)NC(=O)[C@H](CCCNC(=N)N)NC(=O)[C@@H](N)CCCNC(=N)N)C(=O)NCCCCCC(N)=O [^26[A], (RRWQWRAKKLG)2-K-Ahx] (I: H-RRWQWRAKKLGK[Ahx]-NH2 / II: H-RRWQWRAKKLG; amide I:12-II:C) | – | – | – | – | – | greater cytotoxic effect against MCF-7 cells than the peptide | > 200 | > 60 | – | – | – | –
CC(C)C[C@H](NC(=O)[C@H](CCCCN)NC(=O)[C@H](CCCCN)NC(=O)[C@H](CC(C)C)NC(=O)[C@H](CCCNC(=N)N)NC(=O)[C@H](Cc1c[nH]c2ccccc12)NC(=O)[C@H](CCC(N)=O)NC(=O)[C@H](Cc1c[nH]c2ccccc12)NC(=O)[C@H](CCCNC(=N)N)NC(=O)[C@@H](N)CCCNC(=N)N)C(=O)NCC(=O)NCCCC[C@H](NC(=O)CNC(=O)[C@H](CC(C)C)NC(=O)[C@H](CCCCN)NC(=O)[C@H](CCCCN)NC(=O)[C@H](CC(C)C)NC(=O)[C@H](CCCNC(=N)N)NC(=O)[C@H](Cc1c[nH]c2ccccc12)NC(=O)[C@H](CCC(N)=O)NC(=O)[C@H](Cc1c[nH]c2ccccc12)NC(=O)[C@H](CCCNC(=N)N)NC(=O)[C@@H](N)CCCNC(=N)N)C(=O)NCCCCCC(N)=O [^26[L], (RRWQWRLKKLG)2-K-Ahx] (I: H-RRWQWRLKKLGK[Ahx]-NH2 / II: H-RRWQWRLKKLG; amide I:12-II:C) | greater cytotoxic effect against cancer cells than the original peptide | 32 (≈ 9.77 µM) | 10 | – | – | greater cytotoxic effect against MCF-7 cells than the peptide | 66 (≈ 20.1 µM) | 20 | ~85 | lower cytotoxic effect against MCF-12 cells than against breast cancer cell lines | > 100 | 39.38
CC(C)C[C@H](NC(=O)[C@H](CCCCN)NC(=O)[C@H](CCCCN)NC(=O)[C@H](CC(=O)O)NC(=O)[C@H](CCCNC(=N)N)NC(=O)[C@H](Cc1c[nH]c2ccccc12)NC(=O)[C@H](CCC(N)=O)NC(=O)[C@H](Cc1c[nH]c2ccccc12)NC(=O)[C@H](CCCNC(=N)N)NC(=O)[C@@H](N)CCCNC(=N)N)C(=O)NCC(=O)NCCCC[C@H](NC(=O)CNC(=O)[C@H](CC(C)C)NC(=O)[C@H](CCCCN)NC(=O)[C@H](CCCCN)NC(=O)[C@H](CC(=O)O)NC(=O)[C@H](CCCNC(=N)N)NC(=O)[C@H](Cc1c[nH]c2ccccc12)NC(=O)[C@H](CCC(N)=O)NC(=O)[C@H](Cc1c[nH]c2ccccc12)NC(=O)[C@H](CCCNC(=N)N)NC(=O)[C@@H](N)CCCNC(=N)N)C(=O)NCCCCCC(N)=O [^26[D], (RRWQWRDKKLG)2-K-Ahx] (I: H-RRWQWRDKKLGK[Ahx]-NH2 / II: H-RRWQWRDKKLG; amide I:12-II:C) | lower cytotoxic effect against HTB-132 cells than the original dimeric peptide | > 200 | > 60 | – | – | – | – | – | – | – | – | –
